Measured values as given in patent US20070128217A1 (priority 2003, published 2007).

What was measured:
[1] = tested on: rabbit serum obtained by immunizing a rabbit with the SARS-CoV strain Frankfurt 1; type: binding; parameters: Binding of a rabbit serum to linear peptides / Binding of a rabbit serum to looped peptides / Rabbit serum linear peptides / Rabbit serum looped peptides / Binding of a rabbit serum to linear peptides of protein N of SARS-CoV Urbani (Rabbit serum linear peptides) / Binding of a rabbit serum to looped/cyclic peptides of protein N of SARS-CoV Urbani (Rabbit serum looped peptides): unit not given here
[2] = tested on: antibodies in sera from SARS patients (sera 1a, 1b, 2, 6, 37, 62, London, SARS-yellow, SARS-green); type: binding, human; parameters: Binding of serum 6 to linear peptides of protein X1 of SARS-CoV Urbani / Binding of serum 37 to linear peptides of protein X1 of SARS-CoV Urbani / Binding of serum 6 to looped/cyclic peptide (PEPSCAN-ELISA) / Binding of serum 37 to looped/cyclic peptide (PEPSCAN-ELISA) / Binding of serum 37 to looped/cyclic peptides of protein X1 of SARS-CoV Urbani / Binding of serum 6 to linear peptides of protein X2 / Binding of serum 37 to linear peptides of protein X2 / Binding of serum 37 to looped/cyclic peptides of protein X2 of SARS-CoV Urbani / Binding of serum 6 to linear peptides of protein M of SARS-CoV Urbani / Binding of serum 37 to linear peptides of protein M of SARS-CoV Urbani / Binding of serum 6 to looped/cyclic peptides of protein M of SARS-CoV Urbani / Binding of serum 37 to looped/cyclic peptides of protein M of SARS-CoV Urbani / Binding of serum 6 to linear peptides of protein X3 of SARS-CoV Urbani / Binding of serum 37 to linear peptides of protein X3 of SARS-CoV Urbani / Binding of serum 37 to looped/cyclic peptides of protein X3 of SARS-CoV Urbani / Binding of serum 6 to linear peptides of protein X4 of SARS-CoV Urbani / Binding of serum 37 to linear peptides of protein X4 of SARS-CoV Urbani / Binding of serum 37 to looped/cyclic peptides of protein X4 of SARS-CoV Urbani / Binding of serum 6 to linear peptides of protein X5 of SARS-CoV Urbani / Binding of serum 37 to linear peptides of protein X5 of SARS-CoV Urbani / Binding of serum 37 to looped/cyclic peptides of protein X5 of SARS-CoV Urbani / Binding of serum 6 to linear peptides of protein N of SARS-CoV Urbani / Binding of serum 37 to linear peptides of protein N of SARS-CoV Urbani / Binding of serum 6 to linear peptide (PEPSCAN-ELISA) / Binding of serum 1a to looped/cyclic peptides of protein N of SARS-CoV Urbani / Binding of serum 1b to looped/cyclic peptides of protein N of SARS-CoV Urbani / Binding of serum 2 to looped/cyclic peptides of protein N of SARS-CoV Urbani / Binding of serum 6 to looped/cyclic peptides of protein N of SARS-CoV Urbani / Binding of serum 37 to looped/cyclic peptides of protein N of SARS-CoV Urbani / Binding of serum 62 to looped/cyclic peptides of protein N of SARS-CoV Urbani / Binding of serum London to looped/cyclic peptides of protein N of SARS-CoV Urbani / Binding of serum SARS-green to looped/cyclic peptides of protein N of SARS-CoV Urbani: unit not given here
[3] = tested on: control sera (pooled serum of ten healthy LUMC hospital workers; commercial negative donor pooled serum from the Dutch bloodbank); type: binding, human; parameters: Binding of Control serum LUMC to linear peptides / Binding of Control serum Blood-bank to linear peptides / Binding of Control serum LUMC to looped peptides / Binding of Control Serum Blood-Bank to Looped peptides / Binding of Control serum LUMC to linear peptides of the protein M of SARS-CoV Urbani / Binding of Control serum Blood-bank to linear peptides of the protein M of SARS-CoV Urbani / Binding of Control serum LUMC to looped peptides of the protein M of SARS-CoV Urbani / Binding of Control Serum Blood-Bank to Looped peptides of the protein M of SARS-CoV Urbani: unit not given here
[4] = tested on: recombinant human anti-SARS-CoV antibody 03-018; type: binding; parameters: Binding of antibody 03-018 to linear peptides of the N protein of SARS-CoV Urbani / Binding of antibody 03-018 to looped/cyclic peptides of the N protein of SARS-CoV Urbani: unit not given here

| Sequence | Binding of a rabbit serum to linear peptides of protein N of SARS-CoV Urbani (Rabbit serum linear peptides) [1] | Binding of a rabbit serum to looped/cyclic peptides of protein N of SARS-CoV Urbani (Rabbit serum looped peptides) [1] | Binding of serum 1a to linear peptides of protein N of SARS-CoV Urbani [2] | Binding of serum 1a to looped/cyclic peptides of protein N of SARS-CoV Urbani [2] | Binding of serum 1b to linear peptides of protein N of SARS-CoV Urbani [2] | Binding of serum 1b to looped/cyclic peptides of protein N of SARS-CoV Urbani [2] | Binding of serum 2 to linear peptides of protein N of SARS-CoV Urbani [2] | Binding of serum 2 to looped/cyclic peptides of protein N of SARS-CoV Urbani [2] | Binding of serum 6 to linear peptides of protein N of SARS-CoV Urbani [2] | Binding of serum 6 to looped/cyclic peptides of protein N of SARS-CoV Urbani [2] | Binding of serum 37 to linear peptides of protein N of SARS-CoV Urbani [2] | Binding of serum 37 to looped/cyclic peptides of protein N of SARS-CoV Urbani [2] | Binding of serum 62 to linear peptides of protein N of SARS-CoV Urbani [2] | Binding of serum 62 to looped/cyclic peptides of protein N of SARS-CoV Urbani [2] | Binding of serum London to linear peptides of protein N of SARS-CoV Urbani [2] | Binding of serum London to looped/cyclic peptides of protein N of SARS-CoV Urbani [2] | Binding of serum SARS-green to linear peptides of protein N of SARS-CoV Urbani [2] | Binding of serum SARS-green to looped/cyclic peptides of protein N of SARS-CoV Urbani [2] | Binding of serum SARS-yellow to linear peptides of protein N of SARS-CoV Urbani [2] | Binding of serum SARS-yellow to looped/cyclic peptides of protein N of SARS-CoV Urbani [2] | further results |
| --- | --- | --- | --- | --- | --- | --- | --- | --- | --- | --- | --- | --- | --- | --- | --- | --- | --- | --- | --- | --- | --- |
| AQFAPSASAFFGMSR | 0.1 | 0.7 | 0.2 | 0.3 | 0.1 | 0.2 | 0.1 | 0.6 | 0.1 | 0.5 | 0.5 | 0.8 | 0.4 | 0.6 | 0.4 | 2.1 | 0.1 | 0.2 | 0.6 | 0.4 | Control Serum Blood-Bank Looped peptides [3]: 0.8; Control serum Blood-bank linear peptides [3]: 0.7; Control serum LUMC linear peptides [3]: 0.5; Control serum LUMC looped peptides [3]: 0.6; Binding of antibody 03-018 to linear peptides of the N protein of SARS-CoV Urbani [4]: 0.1; Binding of antibody 03-018 to looped/cyclic peptides of the N protein of SARS-CoV Urbani [4]: 0.3 |
| AQPLPQRQKKQPTVT | 0.2 | 0.2 | 0.3 | 0.2 | 0.2 | 0.1 | 0.4 | 0.2 | 0.4 | 0.1 | 0.7 | 0.3 | 0.8 | 0.2 | 1.6 | 0.2 | 0.3 | 0.3 | 1.4 | 0.2 | Control Serum Blood-Bank Looped peptides [3]: 0.4; Control serum Blood-bank linear peptides [3]: 0.6; Control serum LUMC linear peptides [3]: 0.7; Control serum LUMC looped peptides [3]: 0.3; Binding of antibody 03-018 to linear peptides of the N protein of SARS-CoV Urbani [4]: 0.1; Binding of antibody 03-018 to looped/cyclic peptides of the N protein of SARS-CoV Urbani [4]: 0.1 |
| ARPKQRRPQGLPNNT | 0.2 | 0.4 | 0.2 | 0.2 | 0.1 | 0.1 | 0.3 | 0.4 | 0.2 | 0.2 | 0.7 | 0.5 | 0.6 | 0.5 | 0.5 | 0.3 | 0.5 | 0.2 | 0.5 | 0.2 | Binding of Control Serum Blood-Bank to Looped peptides [3]: 0.6; Binding of Control serum Blood-bank to linear peptides [3]: 0.6; Binding of Control serum LUMC to linear peptides [3]: 0.6; Binding of Control serum LUMC to looped peptides [3]: 0.5; Binding of antibody 03-018 to linear peptides of the N protein of SARS-CoV Urbani [4]: 0.1; Binding of antibody 03-018 to looped/cyclic peptides of the N protein of SARS-CoV Urbani [4]: 0.2 |
